Assay results as given in patent US7781445B2, “Synthesis of indenoisoquinoliniums and methods of use” (Purdue Research Foundation, priority 2005, dated 2010).
pIC50: −log10 of the molar value. Where two headings read alike, the source gives them in different places.

Assays:
[1] = system: all human cancer cell lines successfully tested (approximately 55); assay: COMPARE screening, mean graph midpoint (MGM); assay type: cell-based; conditions: average GI50 over all cell lines tested, values outside 10^-8 to 10^-4 molar taken as the limits, read-out: MGM (mean graph midpoint for growth inhibition); for MGM (mean GI50 across cell lines): Homo sapiens
Text: (§1) This in vitro prescreening system is based on the measurement of anticancer cytotoxicity against human cancer cell line panels consisting of approximately 60 cell lines of major human cancers (including leukemia, and slower growing tumor cells such as lung, colon, breast, skin, kidney, etc.) and is referred hereinafter as “COMPARE” screening.
(§2) COMPARE screening. The compounds described herein were examined for antiproliferative activity against the human cancer cell lines in the National Cancer Institute screen (COMPARE screening), in which the activity of each compound was evaluated with approximately 55 different cancer cell lines of diverse tumor origins. […] Therefore, the MGM value represents an overall assessment of toxicity of the compound across numerous cell lines.

MDA-MB-435 = assay: COMPARE screening (NCI), GI50 in MDA-MB-435
Text: as §1, §2

DU-145 = assay: COMPARE screening (NCI), GI50 in DU-145
Text: as §1, §2

SN12C = assay: COMPARE screening (NCI), GI50 in SN12C
Text: as §1, §2

OVCAR-3 = assay: COMPARE screening (NCI), GI50 in OVCAR-3
Text: as §1, §2

topoisomerase I = molecular target: T1, topoisomerase I (Homo sapiens, UniProt P11387); assay: Topoisomerase I-mediated DNA cleavage, 3'-end-labeled 161 bp pBluescript SK(-) fragment; assay type: biochemical; conditions: for Top 1 Cleavage: tested at concentrations ranging up to 10 μM, semi-quantitative relative to compound A; for top1-mediated DNA cleavage band at site 37 / top1-mediated DNA cleavage band at site 44: FIG. 1; for top1-mediated DNA cleavage band at site 37: cleavage site 37; for top1-mediated DNA cleavage band at site 44: cleavage site 44
T1 sequence (P11387 1-765): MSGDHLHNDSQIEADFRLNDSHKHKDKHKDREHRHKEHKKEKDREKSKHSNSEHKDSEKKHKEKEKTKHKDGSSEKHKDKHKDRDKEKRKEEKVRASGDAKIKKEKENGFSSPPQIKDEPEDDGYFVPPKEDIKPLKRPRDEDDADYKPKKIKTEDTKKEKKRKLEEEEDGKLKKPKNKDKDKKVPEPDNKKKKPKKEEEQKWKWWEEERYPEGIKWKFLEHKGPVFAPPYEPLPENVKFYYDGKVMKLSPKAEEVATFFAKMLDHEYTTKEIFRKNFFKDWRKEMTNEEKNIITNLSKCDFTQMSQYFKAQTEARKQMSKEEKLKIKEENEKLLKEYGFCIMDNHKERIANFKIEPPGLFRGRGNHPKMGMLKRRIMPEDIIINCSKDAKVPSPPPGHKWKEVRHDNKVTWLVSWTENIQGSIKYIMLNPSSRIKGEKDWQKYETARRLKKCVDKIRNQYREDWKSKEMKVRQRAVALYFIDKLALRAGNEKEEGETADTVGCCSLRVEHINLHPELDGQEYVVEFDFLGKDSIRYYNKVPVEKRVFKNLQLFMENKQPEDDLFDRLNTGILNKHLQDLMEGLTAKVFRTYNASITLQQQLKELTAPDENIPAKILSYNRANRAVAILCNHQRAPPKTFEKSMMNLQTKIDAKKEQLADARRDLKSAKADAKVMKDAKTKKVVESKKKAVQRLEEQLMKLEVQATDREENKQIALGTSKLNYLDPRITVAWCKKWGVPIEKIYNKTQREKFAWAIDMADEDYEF
Description: The assays were carried out at room temperature for 30 min and stopped by adding 0.5% SDS. […] Topoisomerase I was present in all reaction mixtures except for the one corresponding to the first lane.
Induction of DNA cleavage.
Labeling reactions were followed by phenol-chloroform extraction and ethanol precipitation. […] Reactions were terminated by adding 0.5% SDS.
DNA Cleavage Semiquantitative Analysis. […] The rubberband baseline correction was applied with band detection sensitivity set at 90.

HCT-116 = assay: COMPARE screening (NCI), GI50 in HCT-116
Text: as §1, §2

HOP-62 = assay: COMPARE screening (NCI), GI50 in HOP-62
Text: as §1, §2

UACC-62 = assay: COMPARE screening (NCI), GI50 in UACC-62
Text: as §1, §2

SF-539 = assay: COMPARE screening (NCI), GI50 in SF-539; conditions: Homo sapiens, read-out: Cytotoxicity GI50, CNS SF-539
Text: as §1, §2

[2] = Homo sapiens, DU-145, read-out: Cytotoxicity GI50, prostate DU-145, prostate, DU-145, concentration corresponding to 50% growth inhibition
[3] = Homo sapiens, SN12C, read-out: Cytotoxicity GI50, renal SN12C, renal, SN12C, concentration corresponding to 50% growth inhibition
[4] = Homo sapiens, OVCAR-3, read-out: Cytotoxicity GI50, ovarian OVCAR-3, ovarian, OVCAR-3, concentration corresponding to 50% growth inhibition
[5] = Homo sapiens, MDA-MB-435, read-out: Cytotoxicity GI50, breast MDA-MB-435, breast, MDA-MB-435, concentration corresponding to 50% growth inhibition
[6] = Homo sapiens, HCT-116, read-out: Cytotoxicity GI50, colon HCT-116, colon, HCT-116, concentration corresponding to 50% growth inhibition
[7] = Homo sapiens, UACC-62, read-out: Cytotoxicity GI50, melanoma UACC-62, melanoma, UACC-62, concentration corresponding to 50% growth inhibition

Row | SMILES | MGM (mean GI50 across cell lines) [1] [µM] | GI50 (DU-145; [2]) [µM] | GI50 (SN12C; [3]) [µM] | GI50 (OVCAR-3; [4]) [µM] | GI50 (MDA-MB-435; [5]) [µM] | GI50 (HCT-116; [6]) [µM] | GI50 (UACC-62; [7]) [µM] | top1-mediated DNA cleavage band at site 37 (topoisomerase I) | top1-mediated DNA cleavage band at site 44 (topoisomerase I) | further results
1 | COc1cc2c3c(n(C)c(=O)c2cc1OC)-c1cc2c(cc1C3=O)OCO2 [A, reference compound] |  |  |  |  |  |  |  |  |  | pIC50 [1]: 4.70; GI50 (MDA-MB-435): 96 µM
2 | COc1ccc(OC)c2c3c(ncc12)-c1cc2c(cc1C3)OCO2.Cl [Compound 9db, 1,4-Dimethoxy-8,9-methylenedioxy-11H-indeno[1,2-c]isoquinoline Hydrochloride] | 24.5 | 48.4 | > 100 | 26.9 | > 100 | 0.249 | > 100 |  |  | Top 1 Cleavage (topoisomerase I; Table 2): ++ (++, similar activity as compound A); GI50 (HOP-62; Homo sapiens, HOP-62, read-out: Cytotoxicity GI50, lung HOP-62, lung, HOP-62, concentration corresponding to 50% growth inhibition): < 0.01 µM
3 | COc1cc2c3c(n(CCCNCCO)c(=O)c2cc1OC)-c1cc2c(cc1C3=O)OCO2 [C, reference compound] |  |  |  |  |  |  |  | not seen | observed | 
4 | COc1cc2c(cc1OC)-c1ncc3cc4c(cc3c1C2)OCO4.Cl [Compound 9ba, 8,9-Dimethoxy-2,3-methylenedioxy-11H-indeno [1,2-c]isoquinoline hydrochloride] | 33.9 | 25.3 | > 100 | 61.2 | 63.4 | 11.1 | > 100 | not seen | observed | GI50 (SF-539): 23.4 µM; Top 1 Cleavage (topoisomerase I; Table 1): +++ (+++ and ++++, greater activity than compound A)
5 | COc1cc2c(cc1OC)-c1ncc3cc(OC)c(OC)cc3c1C2.Cl [Compound 9aa, 2,3,8,9-Tetramethoxy-11H-indeno[1,2-c]isoquinoline Hydrochloride] | 44.7 | > 50 | > 50 | > 50 | > 50 | > 50 | > 50 | not seen | observed | GI50 (SF-539): > 50 µM; Top 1 Cleavage (topoisomerase I; Table 1): ++ (++, similar activity as compound A)
6 | COc1cc2c(c(OC)c1OC)-c1ncc3cc(OC)c(OC)c(OC)c3c1C2.Cl [Compound 9ec, 1,2,3,7,8,9-Hexamethoxy-11H-indeno[1,2-c]isoquinoline Hydrochloride] |  |  |  |  |  |  |  |  |  | pIC50 ([1]; Hydrochloride): 4.58; GI50 (DU-145; human): 29.6 µM; GI50 (SN12C; human): 20.3 µM; GI50 (OVCAR-3; human): 21.5 µM; Top 1 Cleavage (topoisomerase I; Table 2, Hydrochloride): ++ (++, similar activity as compound A); GI50 (MDA-MB-435; human): 23 µM; GI50 (HCT-116; human): 27.8 µM; GI50 (HOP-62; human): 28.5 µM; GI50 (UACC-62; human): 21.1 µM
7 | COc1cc2cnc3c(c2c(OC)c1OC)Cc1ccc2c(c1-3)OCO2.Cl [Compound 9eb, 1,2,3-Trimethoxy-7,8-methylenedioxy-11H-indeno[1,2-c]isoquinoline Hydrochloride] | 26.3 | 26.9 |  |  | > 100 | 22.1 | 22.4 |  |  | Top 1 Cleavage (topoisomerase I; Table 2): ++ (++, similar activity as compound A)
8 | COc1cc2c[n+](CCCN)c3c(c2cc1OC)C(=O)c1cc2c(cc1-3)OCO2 [Compound 7ab, 6-(3-Amino-1-propyl)-2,3-dimethoxy-8,9-(methylenedioxy)-1′-oxo-indeno[1,2-c]isoquinolinium Chloride] |  |  |  |  |  |  |  |  |  | pIC50 [1]: 6.78
